Experiments:
[1] = target: T1, ITK (Homo sapiens, UniProt Q08881); assay: Inhibitory activity against ITK, ADP-Glo + ITK Kinase enzyme system kit (Promega); type: biochemical; details: ITK enzyme 0.4 ng/μl; 15 min preincubation at room temperature; 1 hour at 30° C.; luminescence; duplicate
T1 construct: purchased Promega Corporation
T1 sequence (Q08881 1-620): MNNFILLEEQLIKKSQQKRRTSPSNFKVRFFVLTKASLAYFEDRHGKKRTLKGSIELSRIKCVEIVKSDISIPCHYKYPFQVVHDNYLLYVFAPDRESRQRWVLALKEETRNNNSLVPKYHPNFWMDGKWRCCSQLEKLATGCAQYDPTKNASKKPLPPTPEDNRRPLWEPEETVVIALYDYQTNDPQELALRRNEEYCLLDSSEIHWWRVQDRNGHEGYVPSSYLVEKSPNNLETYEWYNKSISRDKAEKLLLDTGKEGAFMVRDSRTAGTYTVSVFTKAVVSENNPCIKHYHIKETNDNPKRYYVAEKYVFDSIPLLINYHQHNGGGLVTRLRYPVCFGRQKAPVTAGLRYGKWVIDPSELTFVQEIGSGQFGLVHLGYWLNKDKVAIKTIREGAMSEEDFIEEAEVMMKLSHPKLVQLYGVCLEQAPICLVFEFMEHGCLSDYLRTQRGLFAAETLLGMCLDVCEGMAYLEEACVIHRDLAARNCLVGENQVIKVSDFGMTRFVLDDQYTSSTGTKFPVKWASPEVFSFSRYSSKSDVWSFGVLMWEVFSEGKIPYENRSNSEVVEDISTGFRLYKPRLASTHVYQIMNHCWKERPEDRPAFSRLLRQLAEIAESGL
Experimental: (§1) Inhibitory activities against BTK and ITK were measured for the compounds prepared in the above Examples as follows.
The inhibitory activity against ITK was evaluated using ‘ADP-Glo™+ITK Kinase enzyme system’ kit (Promega Corporation). […] To the plate on which reactions were completed, 5 μl of substrate and 5 μl of ATP prepared so as to have a final concentration of […] were added and then allowed to react at 30° C. for 1 hour. All wells of the plate were treated with 25 μl of ADP-Glo™ reagent and then allowed to react at 30° C. for 40 minutes. After that, all wells were treated with 50 μl of kinase detection buffer, and then allowed to react at 30° C. for 30 minutes under light shielding conditions. For the plate on which all reactions were completed, luminescence was measured and the results were calculated. Evaluation was carried out in duplicate, and negative control and positive control were calculated depending on whether or not the enzyme was added without treatment of the compound. The IC50 was calculated based on the calculated values.

[2] = target: T2, BTK (Homo sapiens, UniProt Q06187); assay: Inhibitory activity against BTK, ADP-Glo + BTK Kinase enzyme system kit (Promega); type: biochemical; details: BTK enzyme 1 ng/μl; ATP 10 µM; 15 min preincubation at room temperature; 1 hour at 30° C.; luminescence; duplicate
T2 construct: purchased Promega Corporation
T2 sequence (Q06187 whole entry): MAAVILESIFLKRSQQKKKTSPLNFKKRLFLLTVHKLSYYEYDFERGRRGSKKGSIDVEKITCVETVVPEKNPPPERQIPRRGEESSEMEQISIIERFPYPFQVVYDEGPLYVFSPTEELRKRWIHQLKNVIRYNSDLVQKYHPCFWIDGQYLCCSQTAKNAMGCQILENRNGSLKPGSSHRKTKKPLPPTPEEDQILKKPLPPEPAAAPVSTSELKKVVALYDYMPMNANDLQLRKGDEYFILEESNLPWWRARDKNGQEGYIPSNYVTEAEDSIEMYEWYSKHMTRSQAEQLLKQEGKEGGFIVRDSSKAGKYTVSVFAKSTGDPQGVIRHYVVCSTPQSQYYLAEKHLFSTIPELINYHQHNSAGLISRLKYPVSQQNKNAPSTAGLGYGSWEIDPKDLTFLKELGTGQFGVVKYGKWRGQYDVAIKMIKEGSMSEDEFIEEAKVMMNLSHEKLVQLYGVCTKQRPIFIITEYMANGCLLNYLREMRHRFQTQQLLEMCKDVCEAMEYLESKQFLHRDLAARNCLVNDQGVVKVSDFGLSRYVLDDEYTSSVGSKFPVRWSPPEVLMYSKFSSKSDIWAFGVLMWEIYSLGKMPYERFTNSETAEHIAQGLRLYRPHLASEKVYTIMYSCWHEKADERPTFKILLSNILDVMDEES
Experimental: as §1
The inhibitory activities against BTK were evaluated using ‘ADP-Glo™+BTK Kinase enzyme system’ kit (Promega Corporation). […] 5 μl of substrate and 5 μl of ATP prepared so as to have a final concentration of 10 µM were added to the plate on which reactions were completed, and then allowed to react at 30° C. for 1 hour. All wells of the plate were treated with 25 μl of ADP-Glo™ reagent and allowed to react at 30° C. for 40 minutes. After that, all wells were treated with 50 μl of kinase detection buffer, and then reacted at 30° C. for 30 minutes under light shielding conditions. For the plate on which all reactions were completed, luminescence was measured and the results were calculated. Evaluation was carried out in duplicate, and negative control and positive control were calculated depending on whether or not the enzyme was added without treatment of the compound. The IC50 was calculated based on the calculated values.

SMILES | IC50 [1] [nM] | IC50 [2] [nM]
C=CC(=O)N1CCC[C@@H](Nc2nc(CN3CCOCC3)cc(Nc3ncc(C)s3)n2)C1 [Example 25, (R)-1-(3-((4-((5-methylthiazol-2-yl)amino)-6-(morpholinomethyl)pyrimidin-2-yl)amino)piperidin-1-yl) prop-2-en-1-one] | ~1000 | ~1000
C=CC(=O)N1CCC[C@H](Nc2cc(-c3ccccc3)cc(Nc3ncc(C)s3)n2)C1 [Example 39, (S)-1-(3-((6-((5-methylthiazol-2-yl)amino)-4-phenylpyridin-2-yl)amino)piperidin-1-yl) prop-2-en-1-one] | 4.8 | 7.5
CC#CC(=O)N1CCC[C@H](Nc2nc(CN3CCOCC3)cc(Nc3ncc(C)s3)n2)C1 [Example 23, (S)-1-(3-((4-((5-methylthiazol-2-yl)amino)-6-(morpholinomethyl)pyrimidin-2-yl)amino)piperidin-1-yl) but-2-yn-1-one] | – | 36.6
Cc1cc(CN2CCOCC2)cc(Nc2ncc(C)s2)n1 [Example 44, 5-methyl-N-(6-methyl-4-(morpholinomethyl)pyridin-2-yl) thiazol-2-amine] | ~1000 | > 1000
C=CC(=O)N1CCC(Nc2cc(CN3CCOCC3)nc(Nc3ncc(C)s3)n2)C1 (centres unmarked) [Example 8, 1-(3-((2-((5-methylthiazol-2-yl)amino)-6-(morpholinomethyl)pyrimidin-4-yl)amino)pyrrolidin-1-yl) prop-2-en-1-one] | 71.7 | 72.5
C=CC(=O)N1CCC[C@H](Nc2cc(CN3CCOCC3)cc(Nc3ncccn3)n2)C1 [Example 54, (S)-1-(3-(4-(morpholinomethyl)-6-(pyrimidin-2-ylamino)pyridin-2-ylamino)piperidin-1-yl) prop-2-en-1-one] | ~1000 | ~1000
C=CC(=O)N1CCC[C@H](Nc2cc(CN3CCN(CC)CC3)cc(Nc3ncc(C)s3)n2)C1 [Example 32] | 5.6 | 3
CC#CC(=O)N1CCC2CCN(c3cc(CN4CCOCC4)cc(Nc4ncc(C)s4)n3)CC21 (centres unmarked) [Example 29, 1-(6-(6-((5-methylthiazol-2-yl)amino)-4-(morpholinomethyl)pyridin-2-yl)octahydro-1H-pyrrolo[2,3-c]pyridin-1-yl) but-2-yn-1-one] | 50.4 | 18.5
C=CC(=O)N1CCC[C@H](Nc2cc(C#N)cc(Nc3ncc(C)s3)n2)C1 [Example 38] | 2.6 | 1.6
C=CC(=O)N1CCC[C@H](Nc2cc(CN3CCOCC3)cc(Nc3cc[nH]n3)n2)C1 [Example 48, (S)-1-(3-(6-(1H-pyrazol-3-ylamino)-4-(morpholinomethyl)pyridin-2-ylamino)piperidin-1-yl) prop-2-en-1-one] | ~1000 | ~1000
C=CC(=O)N1CCC[C@H](Nc2cc(CN3CCN(CC)CC3)cc(Nc3ncc(C)s3)n2)C1 [Example 42, (S)-1-(3-((4-((4-ethylpiperazin-1-yl)methyl)-6-((5-methylthiazol-2-yl)amino)pyridin-2-yl)amino)piperidin-1-yl) prop-2-en-1-one] | 2.2 | 2.5
C=CC(=O)N1CCC[C@H](Nc2cc(CN3CCOCC3)cc(Nc3ncc(C(F)(F)F)s3)n2)C1 [Example 49, (S)-1-(3-(4-(morpholinomethyl)-6-(5-(trifluoromethyl)thiazol-2-ylamino)pyridin-2-ylamino)piperidin-1-yl) prop-2-en-1-one] | 3 | 2
C/C=C/C(=O)N1CCC(Nc2cc(CN3CCOCC3)nc(Nc3ncc(C)s3)n2)C1 (centres unmarked) [Example 9, (E)-1-(3-((2-((5-methylthiazol-2-yl)amino)-6-(morpholinomethyl)pyrimidin-4-yl)amino)pyrrolidin-1-yl) but-2-en-1-one] | > 1000 | > 1000
C=CC(=O)N1CCC[C@H](Nc2cc(CN3CCN(CCOC)CC3)cc(Nc3ncc(C)s3)n2)C1 [Example 22] | 1 | 1.2
C#CC(=O)N1CCC[C@H](Nc2cc(OC3CCN(C)CC3)cc(Nc3ncc(C)s3)n2)C1 [Example 40, (S)-1-(3-((4-((1-methylpiperidin-4-yl)oxy)-6-((5-methylthiazol-2-yl)amino)pyridin-2-yl)amino)piperidin-1-yl) prop-2-yn-1-one] | 10.8 | 10.3

The next lines start with the values.

IC50 [1] [nM] | IC50 [2] [nM] | SMILES
4.1 | 4.7 | C=CC(=O)N1CCCC(Nc2cc(CN3CCOCC3)cc(Nc3ncc(C)s3)n2)C1 (centres unmarked) [Example 1, 1-(3-((6-((5-methylthiazol-2-yl)amino)-4-(morpholinomethyl)pyridin-2-yl)amino)piperidin-1-yl) prop-2-en-1-one]
1.6 | 0.4 | C=CC(=O)N1CCC[C@@H](Nc2cc(CN3CCOCC3)cc(Nc3ncc(C)s3)n2)C1 [Example 4, (R)-1-(3-((6-((5-methylthiazol-2-yl)amino)-4-(morpholinomethyl)pyridin-2-yl)amino)piperidin-1-yl) prop-2-en-1-one]
1.9 | 1.5 | C=CC(=O)N1CCCC(Nc2nc(CN3CCOCC3)cc(Nc3ncc(C)s3)n2)C1 (centres unmarked) [Example 17, 1-(3-((4-((5-methylthiazol-2-yl)amino)-6-(morpholinomethyl)pyrimidin-2-yl)amino)piperidin-1-yl) prop-2-en-1-one]
49.1 | 3.3 | CC#CC(=O)N1CCC(Nc2cc(CN3CCOCC3)cc(Nc3ncc(C)s3)n2)C1 (centres unmarked) [Example 14, 1-(3-((6-((5-methylthiazol-2-yl)amino)-4-(morpholinomethyl)pyridin-2-yl)amino)pyrrolidin-1-yl) but-2-yn-1-one]
2.3 | 2.2 | C=CC(=O)N1CC[C@H](Nc2nc(CN3CCOCC3)cc(Nc3ncc(C)s3)n2)C1 [Example 24, (S)-1-(3-((4-((5-methylthiazol-2-yl)amino)-6-(morpholinomethyl)pyrimidin-2-yl)amino)pyrrolidin-1-yl) prop-2-en-1-one]
43.8 | 85.2 | C=CC(=O)NC1CCN(c2cc(CN3CCOCC3)cc(Nc3ncc(C)s3)n2)CC1 [Example 27, N-(1-(6-((5-methylthiazol-2-yl)amino)-4-(morpholinomethyl)pyridin-2-yl)piperidin-4-yl) acrylamide]
7.8 | 8.5 | C=CC(=O)N1CCC(Oc2cc(CN3CCOCC3)cc(Nc3ncc(C)s3)n2)CC1 [Example 11, 1-(4-((6-((5-methylthiazol-2-yl)amino)-4-(morpholinomethyl)pyridin-2-yl)oxy)piperidin-1-yl) prop-2-en-1-one]
1.9 | 1.3 | C=CC(=O)N1CCC[C@H](Nc2nc(CN3CCOCC3)cc(Nc3ncc(C)s3)n2)C1 [Example 21, (S)-1-(3-((4-((5-methylthiazol-2-yl)amino)-6-(morpholinomethyl)pyrimidin-2-yl)amino)piperidin-1-yl) prop-2-en-1-one]
47 | 67.1 | C=CC(=O)N1CC2(CC(Nc3cc(CN4CCOCC4)cc(Nc4ncc(C)s4)n3)C2)C1 [Example 30, 1-(6-((6-((5-methylthiazol-2-yl)amino)-4-(morpholinomethyl)pyridin-2-yl)amino)-2-azaspiro[3.3]heptan-2-yl) prop-2-en-1-one]
> 200 | 152 | C=CC(=O)N1CCC[C@H](Nc2cc(CN3CCOCC3)cc(Nc3ncc(C)s3)n2)C1 [Example 5, (S)-1-(3-((6-((5-methylthiazol-2-yl)amino)-4-(morpholinomethyl)pyridin-2-yl)amino)piperidin-1-yl) prop-2-en-1-one]
– | 875 | CC#CC(=O)N1CCC(Nc2cc(CN3CCOCC3)cc(Nc3ncc(C)s3)n2)CC1 [Example 19, 1-(4-((6-((5-methylthiazol-2-yl)amino)-4-(morpholinomethyl)pyridin-2-yl)amino)piperidin-1-yl) but-2-yn-1-one]

— US12227498B2, “Heterocyclic amine derivative and pharmaceutical composition comprising same” (Daewoong Pharmaceutical Co., Ltd., priority 2018, dated 2025)
